# According to patent EP4656642A1, “ESTROGEN RECEPTOR PROTEOLYSIS TARGETING CHIMERA COMPOUND AND USE THEREOF” (GAN & LEE PHARM CO., LTD, priority 2023, dated 2024):
# Columns and labels:
# Format in all cases: cell-based
# ERα [1] = biological target: T1, ERα (Homo sapiens, UniProt P03372); assay: Degradation of ERα in T-47D cells (immunoblotting, 4 h); parameters: host or cells: T-47D
# T1 sequence (P03372 1-595): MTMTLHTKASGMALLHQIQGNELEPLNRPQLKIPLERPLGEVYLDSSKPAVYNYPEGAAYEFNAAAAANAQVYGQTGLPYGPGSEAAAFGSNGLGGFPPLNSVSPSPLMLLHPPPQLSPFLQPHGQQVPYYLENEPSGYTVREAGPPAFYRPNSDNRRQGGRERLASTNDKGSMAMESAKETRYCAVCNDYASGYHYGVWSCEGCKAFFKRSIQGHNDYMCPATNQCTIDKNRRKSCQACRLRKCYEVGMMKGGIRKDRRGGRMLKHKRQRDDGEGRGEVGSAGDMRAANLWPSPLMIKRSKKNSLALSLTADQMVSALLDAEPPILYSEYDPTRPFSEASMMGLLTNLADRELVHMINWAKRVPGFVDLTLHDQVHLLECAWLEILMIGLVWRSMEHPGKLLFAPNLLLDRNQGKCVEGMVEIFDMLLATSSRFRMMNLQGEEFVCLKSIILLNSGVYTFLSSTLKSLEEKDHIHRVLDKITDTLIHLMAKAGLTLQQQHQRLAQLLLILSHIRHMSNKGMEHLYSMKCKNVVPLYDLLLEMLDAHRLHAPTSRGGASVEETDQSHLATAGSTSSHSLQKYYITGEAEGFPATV
# Outline: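 ERα protein levels were assessed by immunoblot of RIPA lysates (with protease inhibitor) after 4 h exposure at 37°C. Compound was added in DMSO to T-47D cells at final concentrations of 0.15-1000 nM.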
# MCF-7 cells = assay: Inhibition of cell proliferation of MCF-7 cells (CCK-8, 9 days)
# Outline: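 Read-out was CCK-8 viability after 9-day continuous exposure (37°C, 5% CO2) of MCF-7 cells plated at 800/well in 10% FBS DMEM across several compound concentrations. Values are proliferation IC50s.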
# T-47D cells = assay: Inhibition of cell proliferation in T-47D cells (CCK-8, 6 days); details: 6 days of treatment
# From the text: Test Example 2: Inhibitory effect of the PROTAC compounds provided in the present disclosure on cell proliferation in T-47D cells (source ATCC)
# The complete medium required for T-47D cells was 1640 ( ATCC, Product number: A10491-01) basal medium containing 10% fetal bovine serum. T-47D cells were inoculated in 96-well plates at a density of 3,000 cells/well, and different concentrations of the PROTAC compounds 1-55 provided in the examples of the present disclosure and a positive control sample ARV-471 (source: Innochem) were prepared to treat cells, and the cells were treated at 37°C in a cell culture incubator with 5% CO2 for 6 days. Cell viability was detected using a CCK-8 kit (Beyotime, Product number: C0040) according to the manufacturer's instructions. […] Table 2 IC50 values for inhibition of the proliferation of T-47D cells by the PROTAC compounds provided by the present disclosure and the positive control sample
# ERα [2] = biological target: T1, ERα; assay: Degradation of ERα in MCF-7 cells (immunoblotting, 4 h)
# Outline: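 Degradation rate reflects ERα band intensity, corrected to an internal reference protein, relative to control. Values come from Western blotting of lysates from MCF-7 cells exposed 4 h at 37°C to compounds at final concentrations of 0.15-1000nM.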
# [3] = treated for 9 days, CCK-8 kit (Table 6)
Degradation rate (%) of ERα in T-47D cells (ERα [1]; 10nM compound) [%],"IC50 (MCF-7 cells; 9 days of treatment, CCK-8, Table 5) [nM]",IC50 (T-47D cells; Table 2) [nM],Degradation rate (%) of ERα in MCF-7 cells (ERα [2]; 10nM compound) [%],Degradation rate (%) of ERα in T-47D cells (ERα [1]; 1nM compound) [%],IC50 (MCF-7 cells; [3]) [nM],IC50 (T-47D cells; Table 3) [nM],Degradation rate (%) of ERα in MCF-7 cells (ERα [2]; 1nM compound) [%],SMILES
53,10,9,14,–,–,–,–,O=C1CCC(N2Cc3cc4c(cc3C2=O)OC2(CC4)CCN(C3CCC4(CC3)CN(c3ccc(C5c6ccc(O)cc6CCC5c5ccccc5)cc3)C4)CC2)C(=O)N1 (stereo not shown) [A23]
73,–,–,77,37,9.28,1.32,49,O=C1CCC(N2Cc3c(ccc4c3OCC43CCN(C4CCN(C(=O)C5CCN(c6ccc([C@@H]7c8ccc(O)cc8CC[C@@H]7c7ccccc7)cc6)CC5)CC4F)CC3)C2=O)C(=O)N1 (stereo partly shown) [H42]
80,–,–,66,49,22000,3.49,33,C[C@@H]1Cc2c(ccc3[nH]ncc23)C(c2ccc(N3CCC4(CCN(C(=O)CN5CCC6(CC5)COc5c6ccc6c5CN(C5CCC(=O)NC5=O)C6=O)CC4)CC3)cn2)N1CC(F)(F)F (stereo partly shown) [J15]
2,–,–,-33,3,5680,10.9,-22,O=C1CCC(N2Cc3c(ccc4c3OCC43CCN(C(=O)C4CCN(c5ccc([C@@H]6c7ccc(O)cc7CC[C@@H]6c6ccccc6)cc5)CC4)CC3)C2=O)C(=O)N1 (stereo partly shown) [A52]
65,–,–,37,35,163,1.02,18,O=C1CCC(N2Cc3c(ccc4c3OCC43CCN(C(=O)CN4CC[C@]5(CCN(c6ccc([C@@H]7c8ccc(O)cc8CC[C@@H]7c7ccccc7)cc6)C5)C4)CC3)C2=O)C(=O)N1 (stereo partly shown) [H21]
30,–,–,18,-11,828,6.52,10,O=C1CCC(N2Cc3ccc4c(c3C2=O)OCC42CCN(C3CC4(CCN(c5ccc([C@@H]6c7ccc(O)cc7CC[C@@H]6c6ccccc6)cc5)CC4)C3)CC2)C(=O)N1 (stereo partly shown) [L26]
82,–,–,77,51,4.19,2.07,35,O=C1CCC(N2Cc3c(ccc4c3OCC43CCN(C4CCN(C5CC6(CCN(c7ccc([C@@H]8c9ccc(O)cc9CC[C@@H]8c8ccccc8)cc7)CC6)C5)[C@@H](C(=O)N5CCC(F)(F)CC5)C4)CC3)C2=O)C(=O)N1 (stereo partly shown) [A99]
17,–,–,-18,8,33,23,-9,O=C1CCC(N2C(=O)c3cc4c(cc3C2=O)OC2(CC4)CN(CC3CCC4(CC3)CCN(c3ccc([C@@H]5c6ccc(O)cc6CC[C@@H]5c5ccccc5)cc3)CC4)C2)C(=O)N1 (stereo partly shown) [A41]
75,–,–,54,31,42.8,2.93,10,CC1(CN2CCC3(CC2)COc2c3ccc3c2CN(C2CCC(=O)NC2=O)C3=O)CCN(C(=O)C2CCN(c3ccc([C@@H]4c5ccc(O)cc5CC[C@@H]4c4ccccc4)cc3)CC2)CC1 (stereo partly shown) [A109]
88,–,–,65,68,9880,1.12,45,O=C1CCC(N2Cc3c(ccc4c3OCC43CCN(C4CCN(C(=O)C5CC6(CCN(c7ccc([C@@H]8c9ccc(O)cc9CC[C@@H]8c8ccccc8)cc7)CC6)C5)CC4)CC3)C2=O)C(=O)N1 (stereo partly shown) [A85]
88,–,–,86,69,33.1,1.05,71,O=C1CCC(N2Cc3c(ccc4c3OCC43CCN(C4CCN(C5CC6(CCN(c7ccc([C@@H]8c9ccc(O)cc9CC[C@@H]8c8ccccc8)cc7)CC6)C5)[C@@H](C(=O)NC5CC5)C4)CC3)C2=O)C(=O)N1 (stereo partly shown) [K27]
23,–,–,4,28,25200,1.61,25,O=C1CCC(N2Cc3c(ccc4c3OCC43CCN(C4CCN(CC5CCN(c6ccc([C@@H]7c8ccc(O)cc8CC[C@@H]7c7ccccc7)cc6)CC5)C(=O)C4)CC3)C2=O)C(=O)N1 (stereo partly shown) [A116]
48,–,–,37,17,11100,9.63,9,O=C1CCC(N2Cc3cc4c(cc3C2=O)OC2(CC4)CN(C(=O)C3CC4(CCN(c5ccc([C@@H]6c7ccc(O)cc7CC[C@@H]6c6ccccc6)cc5)CC4)C3)C2)C(=O)N1 (stereo partly shown) [A49]
30,–,–,-36,41,38,60,-49,O=C1CCC(N2C(=O)c3cc4c(cc3C2=O)OCC2(CCN(CC3CCC5(CC3)CCN(c3ccc([C@@H]6c7ccc(O)cc7CC[C@@H]6c6ccccc6)cc3)CC5)CC2)C4)C(=O)N1 (stereo partly shown) [A42]
43,–,–,16,17,60.6,10.9,0,O=C1CCC(N2Cc3c(ccc4c3OCC43CCN(C[C@H]4CC[C@H](C#Cc5ccc([C@@H]6c7ccc(O)cc7CC[C@@H]6c6ccccc6)cc5)CC4)CC3)C2=O)C(=O)N1 (stereo partly shown) [A115]
57,–,–,43,20,103,10.4,14,O=C1CCC(N2Cc3c(ccc4c3OCC43CCN(C4CCC5(CC4)CCN(c4ccc(C6=C(c7ccc(Cl)cc7Cl)CCCc7cc(C(=O)O)ccc76)cc4)CC5)CC3)C2=O)C(=O)N1 (stereo not shown) [F11]
69,–,–,37,48,9770,5.7,9,O=C1CCC(N2Cc3c(ccc4c3OCC43CCN(C(=O)CC4CCN(c5ccc([C@@H]6c7ccc(O)cc7CC[C@@H]6c6ccccc6)cc5)CC4)CC3)C2=O)C(=O)N1 (stereo partly shown) [H16]
-23,–,–,-14,2,270,21,11,O=C1CCC(N2C(=O)c3cc4c(cc3C2=O)C2(CCN(CC3CCC5(CC3)CCN(c3ccc([C@@H]6c7ccc(O)cc7CC[C@@H]6c6ccccc6)cc3)CC5)CC2)CO4)C(=O)N1 (stereo partly shown) [A36]

SMILES,Degradation rate (%) of ERα in T-47D cells (ERα [1]; 10nM compound) [%],"IC50 (MCF-7 cells; 9 days of treatment, CCK-8, Table 5) [nM]",IC50 (T-47D cells; Table 2) [nM],Degradation rate (%) of ERα in MCF-7 cells (ERα [2]; 10nM compound) [%],Degradation rate (%) of ERα in T-47D cells (ERα [1]; 1nM compound) [%],IC50 (MCF-7 cells; [3]) [nM],IC50 (T-47D cells; Table 3) [nM],Degradation rate (%) of ERα in MCF-7 cells (ERα [2]; 1nM compound) [%]
O=C1CCC(N2Cc3c(ccc4c3OC3(CC4)CCN(C4CCN(C5CN(c6ccc([C@@H]7c8ccc(O)cc8CC[C@@H]7c7ccccc7)cc6)C5)CC4)CC3)C2=O)C(=O)N1 (stereo partly shown) [A60],-1,–,–,-14,11,825,18.3,-31
